{"source": "patent US8557800B2", "about": "“Sphingosine kinase inhibitors” (Apogee Biotechnology Corporation, priority 2005, dated 2013)", "key": {"recombinant human SK": {"system": "recombinant human SK", "test": "Inhibition of recombinant human SK, LC/MS/MS assay", "format": "biochemical", "details": "6 μg/ml compound", "how_it_was_run": "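Enzyme incubated with unlabeled sphingosine and ATP (1 mM, as in the radiometric format) for 30 min, then stopped and extracted with acetonitrile. S1P quantified by C8 reverse-phase HPLC–MS/MS against C17 sphingosine and C17 S1P internal standards using calibration curves.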"}, "Hep-G2 (liver)": {"system": "Hep-G2 (liver)", "test": "Human tumor cell line panel, sulforhodamine B", "format": "cell-based", "details": "HepG2, 48 hours, mean ± sd"}}}
{"smiles": "O=C(NCc1ccncc1)C12CC3CC(C1)CC(c1ccc(Cl)cc1)(C3)C2", "note": "[Compound 62, 3-(4-Chloro-phenyl)-adamantane-1-carboxylic acid (pyridin-4-ylmethyl)-amide]", "values": [{"measurement": "Recombinant SK (% inhibition)", "setting": "recombinant human SK", "value": 13, "unit": "%"}, {"measurement": "IC50", "setting": "Hep-G2 (liver)", "value": "6 ± 2.6", "unit": "µM"}]}
